Experimental findings from patent EP4389751A1, “HETEROCYCLIC COMPOUNDS AND USES THEREOF” (Kumquat Biosciences Inc., priority 2021, dated 2024) are described below.

Like-named read-outs stand apart in the source and are kept apart here. A value given as a limit tells only on which side of the number the result lay.

The IC50 is the point on the concentration scale where inhibition reaches its midpoint.

One assay has as its system A549 cells. The experiment in a line: Cell proliferation assay (CellTiter-Glo), K-Ras G12S cells. Type of assay: cell-based. To be noted: Homo sapiens, A549, A549 cells (K-Ras G12S), read-out: Inhibition of A549 Cells (IC50). An outline of the steps:
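A549 cells (K-Ras G12S) in RPMI-1640 with 10% FBS, seeded in standard or ultra-low-attachment plates and dosed next day with a 10-point 3-fold series. Viability read about 6 days later by CellTiter-Glo luminescence. IC50 from four-parameter fit.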

Another assay addresses T1, K-Ras G12S (Homo sapiens, UniProt P01116, G12S).
T1 construct: made in house; host or cells: E. coli (e.g., BL21 (DE3))
Nature of the assay: HTRF assay of the K-Ras / SOS1 interaction. Type of assay: biochemical. To be noted: IC50 (against K-Ras G12D) to IC50 (against K-Ras G12S). An outline of the steps: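 Compounds (duplicates, 10 µM to 0.01 µM) were incubated ≥~10 min with Eu-labelled GST-K-Ras G12S and XL665-labelled His-hSOS1 in HEPES pH 7.4 buffer containing NaCl, DTT, BSA and Igepal. Disruption measured as HTRF emission ratio 665/620 nm, fitted to IC50.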

The test system of a further assay is GP2D cells. Nature of the assay: Cell proliferation assay (CellTiter-Glo), K-Ras G12D cells. Type of assay: cell-based. To be noted: GP2D cells (K-Ras G12D); read-out: Inhibition of GP2D Cells (IC50). In outline: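 CellTiter-Glo luminescence, taken roughly 5 days after dosing, measured growth of G12D-mutant GP2D cells in DMEM/2 mM glutamine/10% FBS. Compound dilution series (e.g., 9 points, 3-fold) added the day after plating. Four-parameter fitting gave IC50.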
Background: In ATP-based viability assays light output follows the ATP content of the culture.

T1 sequence (P01116 1-188 isoform P01116-2 G12S): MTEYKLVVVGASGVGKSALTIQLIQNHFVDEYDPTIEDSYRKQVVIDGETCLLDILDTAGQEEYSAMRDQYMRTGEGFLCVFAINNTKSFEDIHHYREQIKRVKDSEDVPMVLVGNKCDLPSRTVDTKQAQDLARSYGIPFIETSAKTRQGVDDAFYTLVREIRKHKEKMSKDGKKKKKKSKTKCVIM

For the compound `Nc1nc2c(-c3c(Cl)cc4c(N5CCC6(CC5)CN(C(=O)n5cncn5)C6)nc(OC[C@@]56CCCN5C[C@H](F)C6)nc4c3F)ccc(F)c2s1` [Compound A233, (7-(7-(2-amino-7-fluorobenzo[d]thiazol-4-yl)-6-chloro-8-fluoro-2-(((2R,7aS)-2-fluorotetrahydro-1H-pyrrolizin-7a(5H)-yl)methoxy)quinazolin-4-yl)-2,7-diazaspiro[3.5]nonan-2-yl)(1H-1,2,4-triazol-1-yl)methanone], the IC50 in the assay with A549 cells (bin 500 nM to 5 µM) fell in the range of 0.5 to 5 µM; in the assay with GP2D cells, 1 to 10 µM. For the same compound, the “Ratio of IC50 KRAS G12D vs. IC50 KRAS G12S” value (“Ratio” below) at K-Ras G12S is on record as “A (A: indicates that the ratio of IC50 against KrasG12D vs. IC50 against KrasG12S is 1-fold or greater)”.
For `Nc1nc2c(-c3c(Cl)cc4c(N5CC6CCC(C5)N6C(=O)n5ccnc5Cl)nc(OC[C@@]56CCCN5C[C@H](F)C6)nc4c3F)ccc(F)c2s1` [Compound A242, (3-(7-(2-amino-7-fluorobenzo[d]thiazol-4-yl)-6-chloro-8-fluoro-2-(((2R,7aS)-2-fluorotetrahydro-1H-pyrrolizin-7a(5H)-yl)methoxy)quinazolin-4-yl)-3,8-diazabicyclo[3.2.1]octan-8-yl)(2-chloro-1H-imidazol-1-yl)methanone], in that order: 0.5 to 5 µM, ≤ 1 µM and “A (A: indicates that the ratio of IC50 against KrasG12D vs. IC50 against KrasG12S is 1-fold or greater)”.
For `N#Cc1ccn(C(=O)N2C3CCC2CN(c2nc(OC[C@@]45CCCN4C[C@H](F)C5)nc4c(F)c(-c5ccc(F)c6sc(N)nc56)c(Cl)cc24)C3)n1` [Compound A245, 1-(3-(7-(2-amino-7-fluorobenzo[d]thiazol-4-yl)-6-chloro-8-fluoro-2-(((2R,7aS)-2-fluorotetrahydro-1H-pyrrolizin-7a(5H)-yl)methoxy)quinazolin-4-yl)-3,8-diazabicyclo[3.2. 1]octane-8-carbonyl)-1H-pyrazole-3-carbonitrile], in that order: 0.5 to 5 µM, ≤ 1 µM and “A (A: indicates that the ratio of IC50 against KrasG12D vs. IC50 against KrasG12S is 1-fold or greater)”.
In the case of `N#Cc1c(N)sc2c(F)ccc(-c3c(Cl)cc4c(N5CC6CCC(C5)N6C(=O)n5cncn5)nc(OC[C@@]56CCCN5C[C@H](F)C6)nc4c3F)c12` [Compound A260, 4-(4-(8-(1H-1,2,4-triazole-1-carbonyl)-3,8-diazabicyclo[3.2.1]octan-3-yl)-6-chloro-8-fluoro-2-(((2R,7aS)-2-fluorotetrahydro-1H-pyrrolizin-7a(5H)-yl)methoxy)quinazolin-7-yl)-2-amino-7-fluorobenzo[b]thiophene-3-carbonitrile], the concentration for half-maximal inhibition (IC50) is ≤ 0.5 µM in the assay on A549 cells (bin ≤ 500 nM) and ≤ 1 µM in the assay on GP2D cells. Also, the “Ratio” value on K-Ras G12S is “A (A: indicates that the ratio of IC50 against KrasG12D vs. IC50 against KrasG12S is 1-fold or greater)”.
Consider `Nc1nc2c(-c3c(Cl)cc4c(N5CC6CCC(C5)N6C(=O)n5ccnc5)nc(OC[C@@]56CCCN5C[C@H](F)C6)nc4c3F)ccc(F)c2s1` [Compound A289, (3-(7-(2-amino-7-fluorobenzo[d]thiazol-4-yl)-6-chloro-8-fluoro-2-(((2R,7aS)-2-fluorotetrahydro-1H-pyrrolizin-7a(5H)-yl)methoxy)quinazolin-4-yl)-3,8-diazabicyclo[3.2.1]octan-8-yl)(1H-imidazol-1-yl)methanone], for which the figures for the IC50 in the assay with A549 cells (bin 500 nM to 5 µM) and in the assay on GP2D cells were 0.5 to 5 µM and ≤ 1 µM, respectively. For the same compound, the “Ratio” value on K-Ras G12S was “A (A: indicates that the ratio of IC50 against KrasG12D vs. IC50 against KrasG12S is 1-fold or greater)”.
